The results in this text go back to patent US11541132B2, “Radiolabeled compounds” (Hoffmann-La Roche Inc., priority 2017, dated 2023).

The structures appear in SMILES notation. Like-named read-outs stand apart in the source and are kept apart here.

Experiment [1] addresses T1, aSyn aggregates in A30P transgenic mouse brain tissue (Homo sapiens, UniProt P37840, A30P).
T1 construct: from tissue; host or cells: brain sections (midbrain and pons as ROI) of A30P transgenic mice, line B6.D2-Tg(Thy1-SNCA*30P)31Pjk
Kind of experiment: aSyn in vitro binding assay (autoradiography of tritiated compounds). Details: species or system mutant human aSyn gene). Here is the method:
(§1) Ten μm thick A30P transgenic mouse brain sections and human PD brain sections are generated with a cryostat (Leica CM3050) at −17° C. chamber temperature and −15° C. object temperature. Sections are transferred to Histobond+ microscope slides (Marienfeld Laboratory Glasware). After drying for 3 hours at room temperature the sections are stored at −20° C. The sections are incubated with the radioligand (0.3-30 nM) and the respective cold compound (at various concentrations) in 50 mM Tris buffer, pH 7.4 at room temperature for 30 min. After washing 3×10 min at 4° C. in 50 mM Tris buffer, pH 7.4 and 3 quick dips in H2O dist. at 4° C. the sections are dried at 4° C. for 3 h. The sections are placed in a FujiFilm Cassette, exposed to an Imaging Plate (BAS-IP TR 2025) for five days and afterwards scanned with a FujiFilm IP reader (BAS-5000) with a resolution of […] per pixel.
Antibody staining of sections is performed after exposure and scanning of the tissue sections undergoing classical autoradiographical analysis. Brain sections were hydrated in PBS and blocked in 1% bovine serum albumin, 1% ovalbumin and 1% normal goat serum in PSB for 20 min. This is followed by overnight incubation at 4° C. with a mixture of anti-aSyn pS129 monoclonal antibody (generated in-house; 1 μg/mL) in blocking buffer. […]

The target of experiment [2] is T2, aSyn aggregates (LBs) in human PD brain tissue (Homo sapiens, UniProt P37840).
T2 construct: tissue Banner Sun Health Research Institute; host or cells: human PD brain (cortical) tissue sections
Briefly: aSyn in vitro binding assay on human PD tissue sections. The settings on record: higher magnification. As for the experimental part:
Human PD brain tissue blocks were obtained from the Banner Sun Health Research Institute (Sun City, Ariz., USA). Pathological diagnosis of PD was made according to standard criteria based on neuropathological data.
as §1
Antibody staining of sections is performed after exposure and scanning of the tissue sections undergoing classical autoradiographical analysis. Brain sections were hydrated in PBS and blocked in 1% bovine serum albumin, 1% ovalbumin and 1% normal goat serum in PSB for 20 min. […]

Experiment [3] has as its target native Aβ aggregates in human AD brain sections (Homo sapiens, UniProt P05067). Kind of experiment: Aβ in vitro binding assay (autoradiography). The conditions noted are these: human AD cortical tissue section, 3 nM (FIG. 8).
Protocol: Ten μm thick A30P transgenic mouse brain sections and human PD brain sections are generated with a cryostat (Leica CM3050) at −17° C. chamber temperature and −15° C. object temperature. Sections are transferred to Histobond+ microscope slides (Marienfeld Laboratory Glasware). After drying for 3 hours at room temperature the sections are stored at −20° C. The sections are incubated with the radioligand (0.3-30 nM) and the respective cold compound (at various concentrations) in 50 mM Tris buffer, pH 7.4 at room temperature for 30 min. After washing 3×10 min at 4° C. in 50 mM Tris buffer, pH 7.4 and 3 quick dips in H2O dist. at 4° C. the sections are dried at 4° C. for 3 h. The sections are placed in a FujiFilm Cassette, exposed to an Imaging Plate (BAS-IP TR 2025) for five days and afterwards scanned with a FujiFilm IP reader (BAS-5000) with a resolution of 25 μM per pixel.
This direct in vitro binding assay assesses the affinity of radiotracers for native Aβ aggregates in tissue sections by autoradiography.
In experiment [4] the target is T3, native aSyn aggregates in A30P transgenic mouse brain sections (Homo sapiens, UniProt P37840, A30P).
T3 construct: from tissue; host or cells: brain sections (midbrain and pons as ROI) of A30P transgenic mice, line B6.D2-Tg(Thy1-SNCA*30P)31Pjk
Briefly: aSyn in vitro displacement assay ([3H]Example-3 autoradiography). The experiment is classed as binding, mutant human aSyn gene). The settings on record: for inhibition at 1 µM: read-out: PCT_INHIB A30P @ 1 μM (% displacement of [3H]Example-3). (In general: In a radioligand displacement assay an active substance lowers the binding of a labelled ligand.)

Experiment [5] addresses T4, native Aβ aggregates in human AD brain tissue sections (Homo sapiens, UniProt P05067).
T4 construct: native Aβ aggregates in human AD brain tissue samples; from tissue; host or cells: human AD brain tissue sections
Briefly: Aβ in vitro displacement assay (selectivity counterscreen, [3H]Example 3 autoradiography). The experiment is classed as binding. The settings on record: for inhibition at 1 µM: read-out: sel. counterscreen PCT_INHIB AD @ 1 μM (% displacement of [3H]Example 3). In general terms: Counterscreens check selectivity or assay interference.

Where [6] appears, read: 1 μM compound, 3 nM [3H]Example-3, A30P transgenic mouse brain sections.
Where [7] appears, read: 1 μM compound, 3 nM [3H]Example 3, human AD brain sections.

T4 sequence (P05067 672-713 limits assumed): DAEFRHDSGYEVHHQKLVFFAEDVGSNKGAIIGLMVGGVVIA
Sequence of native Aβ aggregates in human AD brain sections (P05067 672-713 limits assumed): as above

On to `[3H]C([3H])([3H])Oc1ccc(C(=O)Nc2ccc(N3CCN(c4ccccn4)CC3)cc2)cc1` [[^3H]Example-3, 4-[^3H3] Methoxy-N-[4-(4-pyridin-2-ylpiperazin-1-yl)phenyl]benzamide], for which the “co-localization of radioligand binding and aSyn antibody pS129 staining” value in experiment [1] (A30P transgenic mouse brain sections) is “excellent co-localization”. Besides, the “binding to aSyn aggregates in A30P transgenic mouse brain tissue” value in experiment [1] (radioligand 3 nM (FIG. 1), midbrain and pons) is listed as “strong binding”. For the same molecule, in experiment [2], the “co-localization of autoradiogram hot spots with LBs stained by aSyn mAb pS129” value is reported as “good co-localization”.
`[3H]C([3H])(F)Oc1ccc(C(=O)Nc2ccc(N3CCN(c4cccnc4)CC3)cc2)cc1` [[^3H]Example-134, [^3H]4-(Fluoromethoxy)-N-(4-(4-(pyridin-3-yl)piperazin-1-yl)phenyl)benzamide]: the “co-localization of radioligand binding and Aβ mAb staining” value in experiment [3] was “excellent co-localization”.
Consider `CC(C)(C)[Si](C)(C)OC(CF)COc1ccc(C(=O)Nc2ccc(N3CCN(c4ccc(C#N)cc4)CC3)cc2)cc1` (racemic) [Example 127, rac-4-(2-((tert-Butyldimethylsilyl)oxy)-3-fluoropropoxy)-N-(4-(4-(4-cyanophenyl)piperazin-1-yl)phenyl)benzamide], for which the inhibition at 1 µM in experiment [4] amounted to 81%; in experiment [5] it was 78%.
On to `N#Cc1ccc(N2CCN(c3ccc(NC(=O)c4ccc(N5CCOCC5)cc4)cc3)CC2)cc1` [Example 92, N-(4-(4-(4-Cyanophenyl)piperazin-1-yl)phenyl)-4-morpholinobenzamide], for which the inhibition at 1 µM in experiment [4] (setting [6]) was determined as 96%; in experiment [5] (setting [7]) it was 86%.
Take `COc1ccc(C(=O)Nc2ccc(N3CCN(c4ccc(C#N)cn4)CC3)cc2)cc1` [Example 50, N-(4-(4-(5-Cyanopyridin-2-yl)piperazin-1-yl)phenyl)-4-methoxybenzamide]: the inhibition at 1 µM in experiment [4] (setting [6]) is 97%; in experiment [5] (setting [7]), 86%.
With `COc1ccc(C(=O)Nc2ccc(N3CCN(c4ccc(C#N)cc4)CC3)cc2)cc1OC` [Example 169, N-(4-(4-(4-Cyanophenyl)piperazin-1-yl)phenyl)-3,4-dimethoxybenzamide], the values for the inhibition at 1 µM in experiment [4] (setting [6]) and in experiment [5] (setting [7]) were 83% and 82%, respectively.
With `COc1ccc(C(=O)Nc2ccc(N3CCN(c4cccnc4)CC3)cc2)cc1` [Example 38, 4-Methoxy-N-(4-(4-(pyridin-3-yl)piperazin-1-yl)phenyl)benzamide], the inhibition at 1 µM in experiment [4] (setting [6]) was determined as 96%; in experiment [5] (setting [7]), 93%.
For the molecule `COc1ccc(C(=O)Nc2ccc(N3CCN(c4ccccn4)CC3)cn2)nc1` [Example 76, 5-Methoxy-N-(5-(4-(pyridin-2-yl)piperazin-1-yl)pyridin-2-yl)picolinamide], the inhibition at 1 µM in experiment [4] (setting [6]) was found to be 94%; in experiment [5] (setting [7]), 91%.
Consider `COc1ccc(C(=O)Nc2ccc(N3CCN(c4cnc(C#N)cn4)CC3)cc2)cc1` [Example 147, N-(4-(4-(5-Cyanopyrazin-2-yl)piperazin-1-yl)phenyl)-4-methoxybenzamide], for which the inhibition at 1 µM worked out at 88% in experiment [4] (setting [6]) and 91% in experiment [5] (setting [7]).
Regarding `CN1CCN(c2ccc(C(=O)Nc3cnc(N4CCN(c5ccccn5)CC4)nc3)cc2)CC1` [Example 73, 4-(4-Methylpiperazin-1-yl)-N-(2-(4-(pyridin-2-yl)piperazin-1-yl)pyrimidin-5-yl)benzamide], the inhibition at 1 µM in experiment [4] (setting [6]) came to 88%; in experiment [5] (setting [7]) it was 91%.
Turning to `CN(C)c1ccc(C(=O)Nc2ccc(N3CCN(c4ccccn4)CC3)nn2)cc1` [Example 36, 4-(Dimethylamino)-N-[6-[4-(2-pyridyl)piperazin-1-yl]pyridazin-3-yl]benzamide], the inhibition at 1 µM in experiment [4] (setting [6]) was 86%; in experiment [5] (setting [7]) it was 91%.
Turning to `COc1ccc(C(=O)Nc2ccc(N3CCN(c4ccc(OC)nc4)CC3)cc2)cc1` [Example 58, 4-Methoxy-N-[4-[4-(6-methoxypyridin-3-yl)piperazin-1-yl]phenyl]benzamide], the inhibition at 1 µM in experiment [4] (setting [6]) was 93%; in experiment [5] (setting [7]), 92%.
Consider `CC(C)(C)[Si](C)(C)OC(CF)COc1ccc(C(=O)Nc2ccc(N3CCN(c4cc(C#N)ccn4)CC3)cc2)cc1` (racemic) [Example 128, rac-4-(2-((tert-Butyldimethylsilyl)oxy)-3-fluoropropoxy)-N-(4-(4-(4-cyanopyridin-2-yl)piperazin-1-yl)phenyl)benzamide], for which the inhibition at 1 µM amounted to 92% in experiment [4] and 98% in experiment [5].
For `N#Cc1ccc(N2CCN(c3ccc(NC(=O)c4ccncn4)cc3)CC2)cc1` [Example 165, N-(4-(4-(4-Cyanophenyl)piperazin-1-yl)phenyl)pyrimidine-4-carboxamide], the inhibition at 1 µM in experiment [4] (setting [6]) was 86%; in experiment [5] (setting [7]) it was 90%.
`C#CCOc1ccc(C(=O)Nc2ccc(N3CCN(c4ccc(C#N)cn4)CC3)cc2)cc1` [Example 174, N-[4-[4-(5-Cyano-2-pyridyl)piperazin-1-yl]phenyl]-4-prop-2-ynoxy-benzamide]: the inhibition at 3 µM in experiment [4] (3 μM compound, 3 nM [3H]Example-3, A30P transgenic mouse brain sections, read-out: PCT_INHIB A30P @ 3 μM) came to 87%; in experiment [5] (3 μM compound, 3 nM [3H]Example 3, human AD brain sections, read-out: sel. counterscreen PCT_INHIB AD @ 3 μM), 100%.
